{"source": "PubChem BioAssay (NCI)", "test_in_all_cases": "inhibition of tumour cell growth, NCI panel, 48 h", "key": {"[1]": {"system": "UACC-257 melanoma"}, "[2]": {"system": "A549 NSCLC"}, "[3]": {"system": "SR leukemia"}, "[4]": {"system": "RXF-631 renal"}, "[5]": {"system": "SK-MEL-28 melanoma"}, "[6]": {"system": "A498 renal"}, "[7]": {"system": "786-0 renal"}, "[8]": {"system": "KM20L2 colon"}, "[9]": {"system": "XF 498 CNS"}, "[10]": {"system": "HS 578T breast"}, "[11]": {"system": "NCI-H522 lung"}, "[12]": {"system": "MCF7 breast"}, "[13]": {"system": "HCC-2998 colon"}, "[14]": {"system": "SF-539 CNS"}, "[15]": {"system": "U251 CNS"}, "[16]": {"system": "UO-31 renal"}, "[17]": {"system": "BT-549 breast"}, "[18]": {"system": "DMS 114 small cell lung"}, "[19]": {"system": "DMS 273 small cell lung"}, "[20]": {"system": "OVCAR-4 ovarian"}, "[21]": {"system": "PC-3 prostate"}, "[22]": {"system": "RXF 393 renal"}, "[23]": {"system": "MDA-MB-231 breast"}, "[24]": {"system": "SNB-75 CNS"}, "[25]": {"system": "TK-10 renal"}, "[26]": {"system": "LOX IMVI melanoma"}, "[27]": {"system": "SN12C renal"}, "[28]": {"system": "DU-145 prostate"}, "[29]": {"system": "ACHN renal"}, "[30]": {"system": "K-562 leukemia"}, "[31]": {"system": "LXFL 529 NSCLC"}, "[32]": {"system": "SF-295 CNS"}, "[33]": {"system": "NCI-H460 lung"}, "[34]": {"system": "IGROV1 ovarian"}, "[35]": {"system": "SNB-19 CNS"}, "[36]": {"system": "RPMI-8226 leukemia"}, "[37]": {"system": "SK-MEL-5 melanoma"}, "[38]": {"system": "HT29 colon"}, "[39]": {"system": "HOP-62 NSCLC"}, "[40]": {"system": "MOLT-4 leukemia"}, "[41]": {"system": "HCT-15 colon"}, "[42]": {"system": "CAKI-1 renal"}, "[43]": {"system": "OVCAR-8 ovarian"}, "[44]": {"system": "SF-268 CNS"}, "[45]": {"system": "OVCAR-5 ovarian"}, "[46]": {"system": "HCT-116 colon"}, "[47]": {"system": "NCI-H226 lung"}, "[48]": {"system": "MALME-3M melanoma"}, "[49]": {"system": "MDA-N"}, "[50]": {"system": "HOP-92 NSCLC"}, "[51]": {"system": "T-47D breast"}, "[52]": {"system": "DLD-1 colon"}, "[53]": {"system": "KM12 colon"}}, "note": "Values joined by “and” are separate entries in the source; they are usually repeats but may differ in a detail not shown here. Equal values may be shown once.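 Step 1: Grow cells in 96-well plates. Step 2: Expose to compound for 48 hours at 5 concentrations. Step 3: Interpolate endpoints linearly; if unreached, use highest concentration. The concentration for 50% growth inhibition is given as GI50. TGI is the concentration that stops growth completely.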"}
{"smiles": "CN1C(=O)CC2(C)c3cc(O)ccc3N(C)C12", "note": "(stereo not drawn)", "values": [{"measurement": "TGI", "setting": "[1]", "result": "> 85.9", "unit": "µM"}, {"measurement": "TGI", "setting": "[2]", "result": "75 µM and > 100 µM"}, {"measurement": "GI50", "setting": "[3]", "result": 13.9, "unit": "µM"}, {"measurement": "TGI", "setting": "[3]", "result": "45.2 µM and 51.5 µM"}, {"measurement": "TGI", "setting": "[4]", "result": "> 100", "unit": "µM"}, {"measurement": "GI50", "setting": "[5]", "result": 11.8, "unit": "µM"}, {"measurement": "TGI", "setting": "[5]", "result": "21.9 µM and > 79.2 µM"}, {"measurement": "GI50", "setting": "[6]", "result": "> 75", "unit": "µM"}, {"measurement": "TGI", "setting": "[6]", "result": "> 75 µM and 68.2 µM"}, {"measurement": "GI50", "setting": "[7]", "result": 23.8, "unit": "µM"}, {"measurement": "TGI", "setting": "[7]", "result": "58.1 µM and 28.6 µM"}, {"measurement": "TGI", "setting": "[8]", "result": "> 100", "unit": "µM"}, {"measurement": "TGI", "setting": "[9]", "result": 33, "unit": "µM"}, {"measurement": "GI50", "setting": "[10]", "result": 23.7, "unit": "µM"}, {"measurement": "TGI", "setting": "[10]", "result": "69.3 µM and > 90.2 µM"}, {"measurement": "GI50", "setting": "[11]", "result": 15.6, "unit": "µM"}, {"measurement": "TGI", "setting": "[11]", "result": "33.2 µM and 60 µM"}, {"measurement": "GI50", "setting": "[12]", "result": 14, "unit": "µM"}, {"measurement": "TGI", "setting": "[12]", "result": "27.8 µM and 35.8 µM"}, {"measurement": "GI50", "setting": "[13]", "result": "> 75", "unit": "µM"}, {"measurement": "TGI", "setting": "[13]", "result": "> 100", "unit": "µM"}, {"measurement": "GI50", "setting": "[14]", "result": 14.5, "unit": "µM"}, {"measurement": "TGI", "setting": "[14]", "result": "26.9 µM and > 76.5 µM"}, {"measurement": "GI50", "setting": "[15]", "result": 14.4, "unit": "µM"}, {"measurement": "TGI", "setting": "[15]", "result": "25 µM and 31.2 µM"}, {"measurement": "TGI", "setting": "[16]", "result": "> 90.9", "unit": "µM"}, {"measurement": "GI50", "setting": "[17]", "result": 30.3, "unit": "µM"}, {"measurement": "TGI", "setting": "[17]", "result": "75 µM and 30.8 µM"}, {"measurement": "TGI", "setting": "[18]", "result": "> 100", "unit": "µM"}, {"measurement": "TGI", "setting": "[19]", "result": "> 100", "unit": "µM"}, {"measurement": "TGI", "setting": "[20]", "result": 10.6, "unit": "µM"}, {"measurement": "GI50", "setting": "[21]", "result": "> 75", "unit": "µM"}, {"measurement": "TGI", "setting": "[21]", "result": "> 100", "unit": "µM"}, {"measurement": "GI50", "setting": "[22]", "result": 48.4, "unit": "µM"}, {"measurement": "TGI", "setting": "[22]", "result": "75 µM and 66.5 µM"}, {"measurement": "TGI", "setting": "[23]", "result": "40.6 µM and 34.1 µM"}, {"measurement": "GI50", "setting": "[24]", "result": "> 75", "unit": "µM"}, {"measurement": "TGI", "setting": "[24]", "result": "> 75 µM and 68.3 µM"}, {"measurement": "GI50", "setting": "[25]", "result": "> 75", "unit": "µM"}, {"measurement": "TGI", "setting": "[25]", "result": "> 100", "unit": "µM"}, {"measurement": "GI50", "setting": "[26]", "result": 14.8, "unit": "µM"}, {"measurement": "TGI", "setting": "[26]", "result": "38.9 µM and 32.6 µM"}, {"measurement": "TGI", "setting": "[27]", "result": "29.6 µM and 23.3 µM"}, {"measurement": "GI50", "setting": "[28]", "result": "> 75", "unit": "µM"}, {"measurement": "TGI", "setting": "[28]", "result": "> 75", "unit": "µM"}, {"measurement": "GI50", "setting": "[29]", "result": 25.6, "unit": "µM"}, {"measurement": "TGI", "setting": "[29]", "result": "75 µM and > 100 µM"}, {"measurement": "GI50", "setting": "[30]", "result": 11.6, "unit": "µM"}, {"measurement": "TGI", "setting": "[30]", "result": "31.3 µM and 70.8 µM"}, {"measurement": "TGI", "setting": "[31]", "result": "> 59.2", "unit": "µM"}, {"measurement": "GI50", "setting": "[32]", "result": 13, "unit": "µM"}, {"measurement": "TGI", "setting": "[32]", "result": "23.7 µM and 54.9 µM"}, {"measurement": "GI50", "setting": "[33]", "result": 13.9, "unit": "µM"}, {"measurement": "TGI", "setting": "[33]", "result": "26 µM and > 82.3 µM"}, {"measurement": "TGI", "setting": "[34]", "result": "75 µM and 68.8 µM"}, {"measurement": "GI50", "setting": "[35]", "result": "> 75", "unit": "µM"}, {"measurement": "TGI", "setting": "[35]", "result": "> 75 µM and 68.1 µM"}, {"measurement": "GI50", "setting": "[36]", "result": 20.3, "unit": "µM"}, {"measurement": "TGI", "setting": "[36]", "result": "64.8 µM and 67.3 µM"}, {"measurement": "GI50", "setting": "[37]", "result": 54.1, "unit": "µM"}, {"measurement": "TGI", "setting": "[37]", "result": "75 µM and 50.5 µM"}, {"measurement": "GI50", "setting": "[38]", "result": 21.4, "unit": "µM"}, {"measurement": "TGI", "setting": "[38]", "result": "64.5 µM and 51 µM"}, {"measurement": "TGI", "setting": "[39]", "result": 60.7, "unit": "µM"}, {"measurement": "TGI", "setting": "[40]", "result": "44.7 µM and 40.1 µM"}, {"measurement": "GI50", "setting": "[41]", "result": 14.3, "unit": "µM"}, {"measurement": "TGI", "setting": "[41]", "result": "25.9 µM and 41.9 µM"}, {"measurement": "GI50", "setting": "[42]", "result": 32.4, "unit": "µM"}, {"measurement": "TGI", "setting": "[42]", "result": "63.5 µM and > 100 µM"}, {"measurement": "TGI", "setting": "[43]", "result": 61.4, "unit": "µM"}, {"measurement": "GI50", "setting": "[44]", "result": 38.6, "unit": "µM"}, {"measurement": "TGI", "setting": "[44]", "result": "75 µM and 60.6 µM"}, {"measurement": "TGI", "setting": "[45]", "result": 59.6, "unit": "µM"}, {"measurement": "GI50", "setting": "[46]", "result": 22.8, "unit": "µM"}, {"measurement": "TGI", "setting": "[46]", "result": "51.8 µM and 42.1 µM"}, {"measurement": "GI50", "setting": "[47]", "result": 19.5, "unit": "µM"}, {"measurement": "TGI", "setting": "[47]", "result": "54.4 µM and 71.9 µM"}, {"measurement": "GI50", "setting": "[48]", "result": "> 75", "unit": "µM"}, {"measurement": "TGI", "setting": "[48]", "result": "> 75 µM and 93.5 µM"}, {"measurement": "GI50", "setting": "[49]", "result": 12.9, "unit": "µM"}, {"measurement": "TGI", "setting": "[49]", "result": "25.7 µM and 31.7 µM"}, {"measurement": "GI50", "setting": "[50]", "result": 18.4, "unit": "µM"}, {"measurement": "TGI", "setting": "[50]", "result": "57.9 µM and > 95.9 µM"}, {"measurement": "GI50", "setting": "[51]", "result": "> 75", "unit": "µM"}, {"measurement": "TGI", "setting": "[51]", "result": "> 91.2", "unit": "µM"}, {"measurement": "TGI", "setting": "[52]", "result": "> 100", "unit": "µM"}, {"measurement": "GI50", "setting": "[53]", "result": 42.6, "unit": "µM"}, {"measurement": "TGI", "setting": "[53]", "result": "75 µM and 42.7 µM"}]}
